From paper PMC7654703 (ACS chemical biology, 2020)
pKd: −log10 of the molar value.

Legend:
[1] = optical sensor assay; cited from earlier work
[2] = system: TNFα-mediated death of WEHI-13VAR cells; experiment: WEHI-13VAR cell viability assay; type: cell-based, mouse; conditions: pre-incubation of TNFα with 20 μM SPD304 alone; final 20 nM after dilution
TNFα-TNFR1 interaction = TNFα-TNFR1 interaction (Homo sapiens, UniProt P01375); experiment: TNFα-TNFR1 competition ELISA; type: binding; conditions: 100 μM SPD304 alone
[3] = molecular target: bicyclic 19-mer peptide (synthetic construct); conditions: cited from earlier work
TNFα trimer = TNFα trimer (Homo sapiens, UniProt P01375); experiment: TNFα oligomerization state by SEC; type: biochemical; conditions: 1 μM TNFα, additive without peptide (0.05% TWEEN20, one hour RT; 10 μM SPD304)
TNFα trimer, sequence (P01375 77-233 limits assumed): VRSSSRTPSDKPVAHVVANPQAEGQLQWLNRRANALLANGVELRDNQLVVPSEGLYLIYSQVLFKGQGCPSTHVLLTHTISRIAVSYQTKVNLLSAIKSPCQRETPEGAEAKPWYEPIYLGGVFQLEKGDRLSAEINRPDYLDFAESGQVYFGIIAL

TNFα, sequence (P01375 77-233): as the sequence (P01375 77-233 limits assumed) above
TNFα-TNFR1 interaction, sequence (P01375 77-233 limits assumed): as above

Question: Which results are given for `Cc1cc2occ(CN(C)CCN(C)Cc3cn(-c4cccc(C(F)(F)F)c4)c4ccccc34)c(=O)c2cc1C` [SPD304]?
Answer: critical aggregation concentration (CAC) [1]: 10 µM; block of TNFα-mediated cell death by additive alone [2]: did not substantially block; TNFα binding to TNFR1 blocked (TNFα-TNFR1 interaction): ~ 30%

Question: With TNFα (from UniProt P01375) as the compound, how does the pKd [3] read?
Answer: Its pKd is 8.30.

Question: For TWEEN20, which “effect of additive alone on TNFα trimer by SEC” value (TNFα trimer) is on record?
Answer: The value was “did not change”.
